Measurements reported in ChEMBL document CHEMBL1201862, “PubChem BioAssay data set” (2004).
Active and inactive are the calls of the source.

How the values were obtained:
Assay type in all cases: functional
Hexokinase HKDC1 = target: T1, Hexokinase HKDC1 (Homo sapiens, UniProt Q2TB90); assay: inhibition of HKDC1 glucose phosphorylation – biochemical, W721R variant, dose response (AID 504729)
T1 sequence (Q2TB90 whole entry): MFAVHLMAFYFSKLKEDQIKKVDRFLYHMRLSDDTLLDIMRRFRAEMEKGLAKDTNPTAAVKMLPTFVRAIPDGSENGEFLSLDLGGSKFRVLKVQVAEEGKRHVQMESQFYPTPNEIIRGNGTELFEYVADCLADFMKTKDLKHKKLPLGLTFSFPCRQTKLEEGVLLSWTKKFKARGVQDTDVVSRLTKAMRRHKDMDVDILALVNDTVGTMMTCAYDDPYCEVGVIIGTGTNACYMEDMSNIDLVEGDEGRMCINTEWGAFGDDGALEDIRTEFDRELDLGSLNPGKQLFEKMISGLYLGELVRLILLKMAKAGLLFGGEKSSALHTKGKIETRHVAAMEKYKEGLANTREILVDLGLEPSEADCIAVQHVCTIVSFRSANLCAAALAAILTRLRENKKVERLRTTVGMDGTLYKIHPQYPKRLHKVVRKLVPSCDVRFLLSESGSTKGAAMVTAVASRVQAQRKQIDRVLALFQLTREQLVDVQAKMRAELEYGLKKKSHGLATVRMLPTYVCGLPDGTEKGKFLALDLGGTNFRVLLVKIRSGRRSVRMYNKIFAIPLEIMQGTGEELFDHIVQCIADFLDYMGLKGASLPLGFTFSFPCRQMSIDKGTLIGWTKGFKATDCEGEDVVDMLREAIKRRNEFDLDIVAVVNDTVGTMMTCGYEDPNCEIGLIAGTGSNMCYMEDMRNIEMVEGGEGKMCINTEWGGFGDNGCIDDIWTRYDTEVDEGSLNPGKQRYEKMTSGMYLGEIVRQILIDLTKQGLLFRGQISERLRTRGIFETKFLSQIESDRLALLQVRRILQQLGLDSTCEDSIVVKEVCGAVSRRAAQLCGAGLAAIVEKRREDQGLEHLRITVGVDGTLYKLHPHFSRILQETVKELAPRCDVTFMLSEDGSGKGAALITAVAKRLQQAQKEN

[1] = target: T2, Replicative DNA helicase DnaB (Mycobacterium tuberculosis, UniProt P9WMR3); assay: DnaB intein splicing inhibitors, dose response, biochemical, cell-free fluorescence (AID 449749)
T2 sequence (P9WMR3 whole entry): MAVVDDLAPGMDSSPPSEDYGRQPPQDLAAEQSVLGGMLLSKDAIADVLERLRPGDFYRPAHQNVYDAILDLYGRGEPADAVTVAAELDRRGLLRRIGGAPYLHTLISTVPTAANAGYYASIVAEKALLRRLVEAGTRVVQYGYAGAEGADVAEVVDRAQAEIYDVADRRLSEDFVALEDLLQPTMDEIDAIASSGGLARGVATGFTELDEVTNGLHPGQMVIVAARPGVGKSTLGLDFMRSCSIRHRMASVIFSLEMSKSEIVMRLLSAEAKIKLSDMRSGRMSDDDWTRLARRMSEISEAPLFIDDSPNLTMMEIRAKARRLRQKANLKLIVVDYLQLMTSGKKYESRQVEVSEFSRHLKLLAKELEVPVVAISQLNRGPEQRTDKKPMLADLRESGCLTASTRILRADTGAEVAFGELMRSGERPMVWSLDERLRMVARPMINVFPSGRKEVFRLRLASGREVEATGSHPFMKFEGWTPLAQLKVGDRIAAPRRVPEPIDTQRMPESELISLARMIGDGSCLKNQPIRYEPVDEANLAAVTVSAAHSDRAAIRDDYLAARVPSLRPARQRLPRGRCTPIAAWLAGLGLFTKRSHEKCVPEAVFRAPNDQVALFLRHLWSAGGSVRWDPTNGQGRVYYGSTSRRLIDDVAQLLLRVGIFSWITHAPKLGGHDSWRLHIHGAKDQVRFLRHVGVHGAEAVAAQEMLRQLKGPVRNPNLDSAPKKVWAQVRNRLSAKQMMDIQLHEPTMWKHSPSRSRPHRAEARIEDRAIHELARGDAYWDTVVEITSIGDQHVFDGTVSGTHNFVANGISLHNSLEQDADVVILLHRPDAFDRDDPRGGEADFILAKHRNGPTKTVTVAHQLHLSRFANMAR

Protein RecA = target: T3, Protein RecA (Mycobacterium tuberculosis, UniProt P9WHJ3); assay: Fluorescence Cell-Free Homogeneous Dose Retest to Identify Inhibitors of RecA-Intein Splicing Activity. [Related pubchem assays (depositor defined):AID2097, AID2223, AID489010, AID492950]
T3 sequence (P9WHJ3 whole entry): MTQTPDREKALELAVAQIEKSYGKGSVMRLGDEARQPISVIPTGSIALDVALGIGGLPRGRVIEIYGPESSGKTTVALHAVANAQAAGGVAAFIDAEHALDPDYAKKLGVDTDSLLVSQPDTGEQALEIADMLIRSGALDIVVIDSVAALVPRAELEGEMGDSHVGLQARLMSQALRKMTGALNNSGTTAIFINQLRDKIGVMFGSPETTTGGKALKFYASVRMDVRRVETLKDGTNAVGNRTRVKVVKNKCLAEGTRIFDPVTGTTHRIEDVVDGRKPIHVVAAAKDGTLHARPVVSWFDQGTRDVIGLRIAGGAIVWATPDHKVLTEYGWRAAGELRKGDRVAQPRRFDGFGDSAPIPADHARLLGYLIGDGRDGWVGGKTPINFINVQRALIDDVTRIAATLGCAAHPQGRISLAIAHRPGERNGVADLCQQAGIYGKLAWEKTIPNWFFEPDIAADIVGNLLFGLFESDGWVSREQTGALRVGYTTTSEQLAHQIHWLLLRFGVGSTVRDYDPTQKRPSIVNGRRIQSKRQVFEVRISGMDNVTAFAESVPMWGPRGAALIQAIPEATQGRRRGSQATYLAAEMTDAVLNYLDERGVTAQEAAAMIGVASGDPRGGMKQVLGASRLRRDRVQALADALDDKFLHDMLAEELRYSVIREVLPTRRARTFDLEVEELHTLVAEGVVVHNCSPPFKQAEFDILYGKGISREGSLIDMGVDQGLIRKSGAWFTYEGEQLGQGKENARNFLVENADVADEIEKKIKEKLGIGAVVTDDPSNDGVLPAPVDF

PglD = PglD (Campylobacter jejuni, UniProt O86157); assay: inhibition of C. jejuni PglD N-acetyltransferase – biochemical, DTNB absorbance, cherry-picked samples, set 2, dose response (AID 624257)
Sequence of PglD (O86157 whole entry): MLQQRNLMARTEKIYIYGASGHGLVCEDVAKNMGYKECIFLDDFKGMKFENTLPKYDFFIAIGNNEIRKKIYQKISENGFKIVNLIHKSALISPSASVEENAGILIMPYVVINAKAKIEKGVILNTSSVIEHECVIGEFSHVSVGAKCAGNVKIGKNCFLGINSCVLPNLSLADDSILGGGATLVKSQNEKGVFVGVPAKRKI

[2] = target: Ribosomal protein S6 kinase alpha-3 (Homo sapiens, UniProt P51812);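 further: measured within a kinome-wide profiling panel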
Sequence of Ribosomal protein S6 kinase alpha-3 (P51812 whole entry): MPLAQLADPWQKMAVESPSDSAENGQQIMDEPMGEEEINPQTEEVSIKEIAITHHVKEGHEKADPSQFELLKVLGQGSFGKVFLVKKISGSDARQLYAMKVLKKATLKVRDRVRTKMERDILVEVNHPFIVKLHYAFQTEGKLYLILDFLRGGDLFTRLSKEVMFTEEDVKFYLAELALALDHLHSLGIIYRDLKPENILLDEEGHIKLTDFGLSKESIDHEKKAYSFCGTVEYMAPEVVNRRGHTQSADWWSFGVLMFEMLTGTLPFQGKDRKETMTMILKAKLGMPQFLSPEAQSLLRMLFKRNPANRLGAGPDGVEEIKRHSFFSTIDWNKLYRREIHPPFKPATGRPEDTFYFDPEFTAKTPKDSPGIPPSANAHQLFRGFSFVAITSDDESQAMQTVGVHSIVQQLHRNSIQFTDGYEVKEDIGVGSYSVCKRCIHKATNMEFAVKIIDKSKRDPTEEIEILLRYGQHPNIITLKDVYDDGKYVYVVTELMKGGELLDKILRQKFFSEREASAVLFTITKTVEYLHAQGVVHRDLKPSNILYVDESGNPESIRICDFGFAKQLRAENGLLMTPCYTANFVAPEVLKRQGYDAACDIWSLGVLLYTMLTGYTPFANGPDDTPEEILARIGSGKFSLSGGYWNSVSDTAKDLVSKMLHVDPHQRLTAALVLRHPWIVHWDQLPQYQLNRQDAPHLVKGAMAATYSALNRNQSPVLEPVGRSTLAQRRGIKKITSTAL

[3] = target: Protein kinase C zeta type (Homo sapiens, UniProt Q05513);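 further: measured as one member of a broad kinase profiling panel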
Sequence of Protein kinase C zeta type (Q05513 whole entry): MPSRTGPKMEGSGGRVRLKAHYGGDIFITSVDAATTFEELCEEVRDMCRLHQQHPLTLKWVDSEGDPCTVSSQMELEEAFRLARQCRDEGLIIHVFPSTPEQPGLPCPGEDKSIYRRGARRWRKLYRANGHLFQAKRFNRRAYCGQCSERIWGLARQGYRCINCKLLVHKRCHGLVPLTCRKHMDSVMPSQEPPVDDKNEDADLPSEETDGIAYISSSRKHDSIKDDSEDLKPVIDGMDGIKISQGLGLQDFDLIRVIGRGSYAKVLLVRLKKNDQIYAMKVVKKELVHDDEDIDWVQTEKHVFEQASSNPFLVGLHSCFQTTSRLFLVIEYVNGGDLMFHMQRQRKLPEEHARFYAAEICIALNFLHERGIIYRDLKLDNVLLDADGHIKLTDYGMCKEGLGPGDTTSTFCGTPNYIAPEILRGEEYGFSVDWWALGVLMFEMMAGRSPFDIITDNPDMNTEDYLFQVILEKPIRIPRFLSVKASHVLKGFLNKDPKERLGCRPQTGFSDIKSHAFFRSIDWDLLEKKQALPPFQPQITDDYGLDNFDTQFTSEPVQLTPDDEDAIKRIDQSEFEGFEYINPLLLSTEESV

[4] = target: Ribosomal protein S6 kinase alpha-5 (Homo sapiens, UniProt O75582)
Sequence of Ribosomal protein S6 kinase alpha-5 (O75582 whole entry): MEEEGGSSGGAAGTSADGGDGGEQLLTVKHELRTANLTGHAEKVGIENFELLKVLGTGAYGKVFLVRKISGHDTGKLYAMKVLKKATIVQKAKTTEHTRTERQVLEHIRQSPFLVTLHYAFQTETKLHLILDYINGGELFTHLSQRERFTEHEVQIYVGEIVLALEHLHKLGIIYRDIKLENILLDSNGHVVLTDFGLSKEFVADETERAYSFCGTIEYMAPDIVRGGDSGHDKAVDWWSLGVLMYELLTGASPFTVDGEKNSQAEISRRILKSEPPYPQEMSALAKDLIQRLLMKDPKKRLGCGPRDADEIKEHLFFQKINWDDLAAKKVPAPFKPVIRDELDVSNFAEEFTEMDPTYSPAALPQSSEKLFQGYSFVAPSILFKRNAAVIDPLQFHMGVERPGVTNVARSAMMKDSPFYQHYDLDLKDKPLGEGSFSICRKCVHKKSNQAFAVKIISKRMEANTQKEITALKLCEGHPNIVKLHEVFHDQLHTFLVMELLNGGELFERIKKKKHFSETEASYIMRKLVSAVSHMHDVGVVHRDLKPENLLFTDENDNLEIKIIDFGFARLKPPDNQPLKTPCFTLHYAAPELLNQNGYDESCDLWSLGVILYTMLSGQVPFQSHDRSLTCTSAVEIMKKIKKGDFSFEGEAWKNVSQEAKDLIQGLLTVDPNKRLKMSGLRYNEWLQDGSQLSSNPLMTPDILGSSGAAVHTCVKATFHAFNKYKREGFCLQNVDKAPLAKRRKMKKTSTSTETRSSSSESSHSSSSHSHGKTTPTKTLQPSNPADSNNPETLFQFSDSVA

[5] = target: Mitogen-activated protein kinase kinase kinase 20 (Homo sapiens, UniProt Q9NYL2)
Sequence of Mitogen-activated protein kinase kinase kinase 20 (Q9NYL2 whole entry): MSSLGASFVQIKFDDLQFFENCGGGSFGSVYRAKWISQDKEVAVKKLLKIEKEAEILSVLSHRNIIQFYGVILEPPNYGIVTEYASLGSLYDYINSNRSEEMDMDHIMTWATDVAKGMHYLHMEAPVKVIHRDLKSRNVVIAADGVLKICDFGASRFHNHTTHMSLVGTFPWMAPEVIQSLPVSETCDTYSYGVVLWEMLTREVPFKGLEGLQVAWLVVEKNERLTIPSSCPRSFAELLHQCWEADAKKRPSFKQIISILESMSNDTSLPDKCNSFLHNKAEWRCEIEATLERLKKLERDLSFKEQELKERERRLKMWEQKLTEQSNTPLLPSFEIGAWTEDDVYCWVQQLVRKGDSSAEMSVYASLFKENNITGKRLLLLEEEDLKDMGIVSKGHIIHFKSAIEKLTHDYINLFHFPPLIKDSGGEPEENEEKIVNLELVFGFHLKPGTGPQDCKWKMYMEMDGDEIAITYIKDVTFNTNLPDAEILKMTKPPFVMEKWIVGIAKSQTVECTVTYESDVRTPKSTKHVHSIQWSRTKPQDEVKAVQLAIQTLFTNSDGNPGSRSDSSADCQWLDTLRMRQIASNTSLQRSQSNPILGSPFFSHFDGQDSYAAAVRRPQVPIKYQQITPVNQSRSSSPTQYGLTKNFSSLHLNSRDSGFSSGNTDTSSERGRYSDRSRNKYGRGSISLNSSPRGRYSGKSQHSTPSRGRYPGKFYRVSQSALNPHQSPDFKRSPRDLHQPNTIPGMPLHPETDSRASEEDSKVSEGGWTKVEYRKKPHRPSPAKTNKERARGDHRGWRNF

[6] = target: STE20-like serine/threonine-protein kinase (Homo sapiens, UniProt Q9H2G2)
Sequence of STE20-like serine/threonine-protein kinase (Q9H2G2 whole entry): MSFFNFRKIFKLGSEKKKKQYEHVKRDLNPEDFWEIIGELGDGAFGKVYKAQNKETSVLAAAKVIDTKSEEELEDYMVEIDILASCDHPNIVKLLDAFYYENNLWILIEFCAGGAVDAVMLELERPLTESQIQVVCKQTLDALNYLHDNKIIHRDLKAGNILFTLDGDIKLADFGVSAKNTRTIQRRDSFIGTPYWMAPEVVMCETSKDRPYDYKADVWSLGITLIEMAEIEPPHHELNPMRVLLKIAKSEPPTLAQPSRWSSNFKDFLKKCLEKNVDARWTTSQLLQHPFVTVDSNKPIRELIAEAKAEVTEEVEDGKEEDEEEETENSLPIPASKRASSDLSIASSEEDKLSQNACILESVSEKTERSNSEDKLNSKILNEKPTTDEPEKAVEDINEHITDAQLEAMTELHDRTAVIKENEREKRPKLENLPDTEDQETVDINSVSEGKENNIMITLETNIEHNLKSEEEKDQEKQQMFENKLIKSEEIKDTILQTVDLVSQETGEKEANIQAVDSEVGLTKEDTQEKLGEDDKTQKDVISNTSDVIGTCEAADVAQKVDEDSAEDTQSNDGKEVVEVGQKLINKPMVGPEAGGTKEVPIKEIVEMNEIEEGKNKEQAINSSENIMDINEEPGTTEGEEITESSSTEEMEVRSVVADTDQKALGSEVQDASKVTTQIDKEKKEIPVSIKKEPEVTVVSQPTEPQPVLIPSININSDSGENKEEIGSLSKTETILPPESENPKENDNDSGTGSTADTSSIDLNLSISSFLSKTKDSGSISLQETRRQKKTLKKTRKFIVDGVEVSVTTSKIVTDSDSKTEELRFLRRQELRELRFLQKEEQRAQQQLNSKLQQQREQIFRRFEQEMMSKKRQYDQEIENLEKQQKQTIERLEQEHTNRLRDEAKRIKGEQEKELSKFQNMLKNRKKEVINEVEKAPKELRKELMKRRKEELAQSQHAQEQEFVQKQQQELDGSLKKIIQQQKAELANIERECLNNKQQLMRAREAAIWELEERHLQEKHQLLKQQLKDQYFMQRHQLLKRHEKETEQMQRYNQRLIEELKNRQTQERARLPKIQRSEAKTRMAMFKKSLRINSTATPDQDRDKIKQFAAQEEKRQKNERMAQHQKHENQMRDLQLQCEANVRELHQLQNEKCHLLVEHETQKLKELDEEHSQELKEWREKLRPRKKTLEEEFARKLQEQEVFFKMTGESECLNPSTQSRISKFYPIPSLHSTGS

With CC(=O)NC1C(=O)N(CCN2CCOCC2)c2ccc(Cl)cc21 (centres undefined) the IC50 (Hexokinase HKDC1) was 6.75 µM (active), the AC50 [1] was 16.6 µM (active) and the EC50 (Protein RecA) was 10.5 µM (active). For the same molecule, the AC50 (PglD) was 17.5 µM (active).

With Cc1c(C=O)c(O)n2c(nc3ccccc32)c1C#N the Ki [2] was 5.01 µM (active) and the Ki [3] was > 7.94 µM (inactive).

Cc1n[nH]c2cnc(-c3cncc(OCC(N)Cc4cccc(C(F)(F)F)c4)c3)cc12 (centres undefined) was tested, and the Ki [4] was 0.0794 µM (active), the Ki [5] was > 7.94 µM (inactive) and the Ki [6] was 0.2 µM (active).
